Laboratory results reported in patent publication US12503479B2, “Phospholipid-flavagline conjugates and methods of using the same for targeted cancer therapy” (Cellectar Biosciences, Inc., priority 2018, dated 2025).
Read-outs that look alike come from different tables or passages of the source.

Key:
[1] = tested on: A549 (human lung adenocarcinoma); assay: cells; format: cell-based; conditions: Homo sapiens, A549, read-out: IC50, A549
A375 and A549 cells = assay: Levels of FLV3 in cell lysate and growth media (LC/MS); format: cell-based, human
Procedure: FIG. 11 is a graph of concentration versus time for FLV3 detected in the cytosol (normalized to the cytosolic volume) in A375 (human melanoma) and A549 (human lung adenocarcinoma) cell lines.
The levels of FLV3 in cell lysate and growth media were measured using LC/MS. […] Levels of intracellular FLV3 appeared to plateau at 24 hours, while extracellular levels of FLV3 continued to increase.

[2] = tested on: A549 (human lung adenocarcinoma) cells; assay: Cytotoxicity of parent compound versus PDC, tumor cells (Example 8); format: cell-based; conditions: increasing concentrations; FIG. 3
Procedure: A549 (human lung adenocarcinoma) cells and normal human dermal fibroblasts (NHDF) were plated in 96 well dishes overnight. […] The difference between the cytotoxicity of the PDC molecule for tumor cells and that of the normal cells may have indicated a potential to improve the parent molecules therapeutic index.

[3] = tested on: A375 (human malignant melanoma); assay: IC50 in cell lines: A375; format: cell-based; conditions: A-375, read-out: IC50, A375
[4] = tested on: NHDF (normal human dermal fibroblasts); assay: cells; format: cell-based
[5] = tested on: HCT 116 (human colon cancer); assay: IC50 in cell lines: HCT 116; format: cell-based; conditions: HCT-116, read-out: IC50, HCT 116
[6] = format: in vivo, mice
Procedure: Listed in Table 5 are the doses administered to the mice, and how many mice were alive after treatment (“3/3” indicates 3 out of 3 mice were alive). […] MTD for CLR 1865 was between 5 and 10 mg/kg.

[7] = tested on: Mammary alveolar hyperplasia; assay: Uptake in benign tissues: Mammary alveolar hyperplasia; format: in vivo; conditions: Endogenous Mouse
Intestinal Polyp = assay: Uptake in benign tissues: Intestinal Polyp; format: in vivo; conditions: Endogenous Mouse, Adenoma (benign)

| Compound | IC50 [1] [nM] | Time at which levels of intracellular FLV3 plateau (A375 and A549 cells) [h] | Levels of FLV3 in the growth media (A375 and A549 cells; after 24 hours) | Levels of FLV3 in the cell lysate (A375 and A549 cells; after 24 hours, FIG. 11) | Cytotoxic potency to A549 cells versus NHDF cells (selectivity) [2] | IC50 [3] [nM] | IC50 ([4]; Homo sapiens, NHDF, read-out: IC50, NHDF) [nM] | Therapeutic Index (TI) ([4]; not defined, equals NHDF IC50 over lowest tumor line IC50) | IC50 [5] [nM] | Mice alive after treatment ([6]; Dose 0.1 mg/kg) | Mice alive after treatment ([6]; Dose 0.25 mg/kg) | Tumor Uptake [7] | Tumor Uptake (Intestinal Polyp) |
| --- | --- | --- | --- | --- | --- | --- | --- | --- | --- | --- | --- | --- | --- |
| COC(=O)[C@@H]1[C@H](O)[C@]2(O)c3c(OC)cc(OCCCCN)cc3O[C@]2(c2ccc(OC)cc2)[C@H]1c1ccccc1 [FLV3, reference compound] | 90 | 24 | Moderate levels | high levels | near equal potency to the A549 cells as it did to the NHDF cells | 15 | 8 | 0.89 | 9 | 3/3 | 3/3 | – | – |
| C[N+](C)(C)CCOP(=O)([O-])OCCCCCCCCCCCCCCCCCCc1ccc(I)cc1 [CLR1404] | – | – | – | – | – | – | – | – | – | – | – | No | No |
